According to a melting point compilation (Tetko et al.; mined from patent text by program, amines drawn as free bases though some values may be those of a salt):

melting point [°C] | Compound
163 | CC(=O)N1N=C(c2ccncc2)OC1c1c(Cl)cccc1Cl (configuration not stated)
205 | Nc1nccc(Oc2ccc3c(C(=O)Nc4ccc(F)c(C(F)(F)F)c4)cccc3c2)n1
210 to 215 | NCc1ccc([N+](=O)[O-])cc1O
220 to 222 | CCn1cc(C(=O)O)c(=O)c2c(F)c(F)c(N3CCNC(C)C3)c(F)c21 (configuration not stated)
90.5 to 92 | Cc1cc(C(O)(C(F)(F)Cl)C(F)(F)Cl)cc(C)c1O
291 to 293 | O=c1[nH]c(-c2cccc3ccccc23)nc2ccc(N3CCOCC3)cc12
120 to 121 | Fc1cccc(-c2nc(-c3ccccn3)no2)c1F
115 to 116 | CS(=O)(=O)N1CCN(Cc2ccccc2)CC1
145 | CC(=O)Nc1cc(CO)ccn1
172 | CCOc1cccc(NCCSCc2[nH]cnc2C)n1
102 to 103 | O=C(c1ccccc1)C(Cc1ccccc1)C(=O)c1ccccc1
136 to 138 | CC(C)(C)OC(=O)N1CCc2c(n(CCOc3ccccc3)c3cc(Cl)c(Cl)cc23)CC1
85 to 86.5 | N#Cc1ccc2c(c1)C(O)CCCO2 (configuration not stated)
96 to 97 | CCOC(=O)c1ccc(CN(C(C)=O)C(=O)OC(C)(C)C)cc1
133 | CC(=O)c1ccc(N2CCC(N(C)Cc3ccc(F)cc3)CC2)cc1
155 to 156 | CCC(C)SC1=C(C#N)C(c2ccccc2)(c2ccccc2)C(=O)N1 (configuration not stated)
218 to 220 | CC1Cc2cc3c(cc2C(c2ccc([N+](=O)[O-])cc2)=NN1C1=NC(=O)CS1)OCO3 (configuration not stated)
> 260 | O=C(O)c1n[nH]c2c1C=CC(c1ccccc1)(c1ccccc1)C2
130 to 132 | Cc1c(CO)c2cnnc(OCc3ccccc3)c2n1Cc1ccccc1
280 to 282 | Cc1cc(O)c2c(ccc3nc(-c4ccco4)[nH]c32)n1
102 to 103 | Cc1csc(N2CCN(Cc3ccc(C(F)(F)F)cc3)C2=O)n1
100 | O=C1C(c2ccccc2)N(c2ccc(Oc3ccccc3)cc2)C(=S)N1c1ccccc1 (configuration not stated)
74 to 76 | CCOC(=O)c1ccc(CN2CCC(NC(=O)OC(C)(C)C)CC2)cc1
240 to 245 | CCCCCCCCCCCCCCCC(=O)NCCCC[C@H](N)C(=O)O

melting point [°C] | Compound
45 to 46 | CN(C)c1ccc(CCBr)cc1
73 | CCOC(=O)Cc1ccc(NCc2cc(Br)ccc2OCc2ccccc2)cc1
80 to 84 | CCn1c(-c2ccc(-n3ccnc3)cc2)cnc1[C@H](Cc1ccccn1)N(C=O)c1cc2cc(F)ccc2o1
158 | COC(=O)c1nc(Cl)nc(N)c1OC
159 to 160 | CCC(=S)NC[C@H]1CN(c2ccc(N3CCN(C(=O)COc4ccc(CN5CCOCC5)cc4)CC3)c(F)c2)C(=O)O1
194 | COc1ccc(Br)c(C(=O)N2CCN(S(=O)(=O)c3ccc(F)cc3F)CC2)c1
178 to 180 | CCOC(=O)C(=CNc1ccc(F)c(F)c1O)C(=O)OCC
225 | Cc1sc(S(=O)(=O)NC(C)(C)CO)cc1NC(=O)c1cnn2c(C(F)(F)F)cc(-c3ccc(C(F)(F)F)cc3)nc12
196 to 198 | NS(=O)(=O)c1ccc(C(=O)NCCCN2CCOCC2)cc1
189 to 190 | CCC(=O)Nc1cc(-n2cccn2)nc(-c2ccc(Cl)o2)n1
147 to 148 | COc1cc2ncnc(N3CCCc4cc(C)ccc43)c2cc1OC
240 to 241 | CN1C(=O)C(C)(C)CCc2cc(C(=O)O)ccc21
77 to 79 | Cc1cccc(C)c1C(N)=NO
223 to 225 | O=C(Nc1ccc2cc(CN3CCCC3)cnc2c1)c1ccc(-c2ccc(Cl)cc2)nc1
192 to 193 | COc1ccc(C(=O)Nc2ccccc2)cc1NC(=S)Nc1cc(C(F)(F)F)cc(C(F)(F)F)c1
230 to 235 | Cc1nc2sc3cc(F)ccc3n2c1CO
252 | CCOC(=O)c1ccc(-c2[nH]nc3c2C(=O)c2c(NC(=O)N(NC)NC)cccc2-3)s1
166 to 168 | N#Cc1c(N2CCCC2)cc(-c2ccccc2)c2c1C(=O)c1ccccc1-2
211 to 212 | COc1ccc(CNc2cc(Cn3c(C(=O)c4cc(C)cc(C)c4)c(C(C)C)c(=O)[nH]c3=O)cc(Cl)n2)cc1
151 to 153 | COC(=O)C(=NO)c1ccccc1
221 to 223 | COc1cccc2c1S(=O)(=O)NC(C1CCCCC1)N2 (configuration not stated)
160 to 162 | CCOCc1nc2c(N)nc3ccccc3c2n1CCCCCC(=O)N1CCOCC1
189 to 190 | COC(=O)C1=C(O)c2c(c3ccccc3n2C)S(=O)(=O)N1C
89 to 90 | CC(C)CCCC(C)C1CCC2C3CC=C4CC(OCCCCCCS)CCC4(C)C3CCC12C (configuration not stated)

melting point [°C] | Compound
72 to 75 | CCCc1c(OCCCCCc2ccc(OC)c(OC)c2)ccc(C(C)=O)c1O
113 to 115 | COc1ccc(N2CCN(c3c(C)c(C)c4c(c3C)C(O)(c3ccccn3)C(C)(C)O4)CC2)cc1 (configuration not stated)
175 to 176 | Cc1cc(C)c2nc(C3CC3)n(Cc3ccc(C4(C(=O)O)CCCCC4)s3)c2n1
108 to 110 | CC(=O)OC1C(OC(=O)c2cccc([N+](=O)[O-])c2)C=C(C)C(=O)CC1(C)C (configuration not stated)
105 to 108 | COc1cc(NC(=O)Nc2ccc(C3CCN(C(=O)Nc4ccc(OCC(O)CO)cc4Cl)CC3)cc2)cc(OC)c1 (configuration not stated)
133 to 135 | O=S(=O)(NN=C(Cl)c1ccc(F)cc1Cl)c1ccccc1
91 to 93 | CS(=O)(=O)c1ccccc1S(=O)(=O)Nc1cccc2cc(C(=O)NCCSC(c3ccccc3)(c3ccccc3)c3ccccc3)[nH]c12
83 | C=CCOC(=O)C(=[N+]=[N-])C(=O)CC1CC(=O)N1 (configuration not stated)
114 to 116 | OCc1nccc(N2CCCC2)n1
105 | CCCSc1c2c(=O)n(C)c(=O)n(CC(C)C)c2nn1Cc1cccc2ccccc12
52 to 54 | COC(=O)C(C)C(C#Cc1ccccc1)c1ccc(OC)c(OC2CCCC2)c1 (racemic)
86 | CCCC(c1ccc(C(=O)O)cc1)N(CCC)c1nc(-c2ccc(Cl)cc2Cl)c(C)s1 (configuration not stated)
213 to 214 | Cn1ncc(/C=C/C(=O)Nc2ccc(Cn3ccnc3)cc2)c1-c1ccc(F)cc1
118 to 119 | CC(C)(O)C#Cc1cccc(N)c1
212 to 214 | Cc1[nH]c(=O)c(C#N)cc1C(=O)CBr
48 to 52 | Clc1cc(Cl)nc(NC2CCCC2)n1
122 to 125 | COc1ccccc1CNc1cccnc1-c1ccccc1
151 to 153 | Nc1cc(N2CC(c3cccs3)OC2=O)ccn1 (configuration not stated)
156 to 157 | CCN1CC2CCCC2C1CNC(=O)c1cc(Cl)c(NC(C)=O)cc1OC (configuration not stated)
90 to 92 | OCCSCc1ccc(CSCCO)cc1
176 to 185 | CCOC(=O)c1ncn2c1cc(-c1ccccc1)c1ccccc12
138 to 140 | CSc1cn(C)c2sccc2c1=O
185 to 189 | CC(c1oc2ccccc2c(=O)c1-c1cccc(F)c1)n1nc(-c2ccccc2CO)c2c(N)ncnc21 (configuration not stated)
131 to 133 | Cn1nnc(-c2cc3c(Oc4ccc(Cl)cc4)cncc3s2)n1

melting point [°C] | Compound
156 to 158 | CONC(=O)Nc1ccc(-c2nc3n(Cc4c(F)cccc4F)cc(C(=O)OC(C)C)c(=O)n3c2CN(C)Cc2ccccc2)cc1
150 | CC(C)(C)[S@](=O)N1CCC[C@@H]1c1ccc(O)cc1
224 | Cc1cccc(-c2[nH]nnc2-c2ccc3c(c2)NC(=O)CO3)n1
165 | CCOC(=O)c1ncn2c1nc(N1CCOCC1)c1ccccc12
165 | CCN(CC)c1ccc(S(=O)(=O)N2CC(O)CC2=O)cc1 (configuration not stated)
65.5 to 67 | COC(=O)c1cc(Cl)ccc1N(C)S(=O)(=O)c1ccc(C)cc1
231 to 232 | COc1ccc(Cc2nc3n(c2Cc2ccc(OC)cc2)CCS3(=O)=O)cc1
164 | CCOC(=O)CC(=Cn1cc[nH]c1=O)c1ccc(OC)c(OC2CCCC2)c1
253 to 255 | O=C(Nc1ccc(-n2nc(C(F)(F)F)cc2C(F)(F)F)cc1)c1cc2cc(F)ccc2[nH]1
180 to 181 | N#Cc1ccc(C(=O)Nc2cc(C(=O)NCc3ccccc3)ccn2)cc1
44 | COC(=O)CCCCCCCCC=CCCCCCCCCC(=O)OC
157 to 158 | Cc1c(C)c2c(c(C)c1NC=O)CC(C)(CBr)O2 (configuration not stated)
144 to 146 | Cc1cccc(C)c1N1C(=O)C(=O)N(C)C1=S
223 to 225 | CC(=O)C1=C(O)C(=C(C)Nc2ccc(O)cc2)C(=O)OC1=O
149 to 151 | Nc1cn(-c2cncc(F)c2)nc1Cl
190 to 197 | CCN1C(=O)N=NC1c1ccc(Cl)cc1 (configuration not stated)
105 to 110 | Nc1nc(Cl)nc(N(CCC(=O)O)Cc2ccc(Cl)c(Cl)c2)n1
129 to 130 | CC(=O)c1ccc(NS(=O)(=O)N(C)C)cc1
230 to 243 | CC(Nc1nc2ccc(Cl)cc2cc1C(=O)O)C(=O)Nc1ccc2ccccc2c1 (configuration not stated)
189 to 190 | CC(=O)c1ccc(S(=O)(=O)Nc2cc(C)on2)cc1
117 to 118 | CC(=O)N1N=C(c2ccncc2)OC1(C)C
200 to 202 | COc1ccccc1COc1ccc(S(=O)(=O)c2cnc(C)nc2Nc2c(C)cc(C)cc2C)cc1
48 to 50 | CCCCCc1c(C(C)C)nc(C(C)C)c(CNCC)c1-c1ccc(F)cc1

Compound | melting point [°C]
Cc1ccc(S(=O)(=O)NP(N)(N)=O)cc1 | 114 to 118
NC(=O)c1cn(Cc2ccccc2F)nn1 | 220 to 222
N#C[C@@H]1CCCN1C(=O)CCl | 53 to 57
CCCCn1c(C)c(C)cc(Oc2nc3ccccc3o2)c1=O | 106 to 108
CCCCCN1C(=O)CN=C(c2ccccc2)c2ccccc21 | 93 to 95
CC(C)c1cccc(C(C)C)c1OC(=O)CCC(=O)O | 101 to 102
CCCCCCC(C)(C)c1cc(OC)c(C2C(=O)[C@]3(C)CC[C@H]2C3(C)C)c(OC)c1 (some centres not stated) | 64 to 65
